Experimental data taken from paper PMC10720383, “Acetylcholinesterase Inhibition in Rats and Humans Following Acute Fenitrothion Exposure Predicted by Physiologically Based Kinetic Modeling-Facilitated Quantitative In Vitro to In Vivo Extrapolation” (Environmental Science & Technology, 2023).
Read-outs that look alike come from different tables or passages of the source.

What was measured:
[1] = cited from earlier work
[2] = system: erythrocyte AChE; assay: PBK modeling-facilitated QIVIVE and BMD analysis, human
Protocol: For toxicity prediction, the maximum blood FNO concentration was used as a dose metric relating AChE inhibition to acute FNT exposure (see section 3.3). Since the in vitro AChE inhibition under increasing FNO concentrations was tested in rat and human blood, these nominal concentrations could be used directly as the biological effective concentrations (in vivo maximum blood FNO concentrations), and no extra correction for differences in in vitro and in vivo protein binding was deemed necessary. Then the corresponding FNT dose levels resulting in these in vivo concentrations were derived via PBK modeling-facilitated reverse dosimetry. In doing so, the in vitro concentration–response relationship was converted to the predicted in vivo dose-dependent erythrocyte AChE inhibition, which was then compared to available in vivo toxicity data in rats and humans.[8],[39]
BMD modeling was used to derive POD values from the predicted in vivo dose-dependent data sets for rats and humans. A BMD value resulting in a 10% benchmark response (BMR) change with lower 95% confidence limit was defined as BMDL10, and the obtained values for rats and humans were evaluated against the reported NOAELs.[1],[11]−[13] Details and results of BMD analysis are provided in the Supporting Information. […]
BMD modeling was used to derive POD values from the predicted in vivo dose-response curves for rats and humans. The EFSA web-tool (https://efsa.openanalytics.eu/) integrated with the R package PROAST (version 70.0) developed by the Dutch National Institute for Public Health and the Environment (RIVM) was used for the BMD analysis. A BMD value resulting in a 10% benchmark response (BMR) change with lower 95% confidence limit was defined as BMDL10. Briefly, the continuous data were fitted to a set of models (Exponential, Hill, Inverse Exponential, and Log-Normal family models), and all fitted models excluding the FULL and NULL models were used for model averaging via a weighted average model. […]

[3] = system: CYP450s; assay: in vitro; format: in vitro ADME; details: both sexes, Sprague-Dawley, rat, pH 7.4, rat liver microsomes, gender-mixed
Protocol: In vitro incubations were performed to obtain kinetic parameters for the CYP450s-catalyzed conversion of FNT to FNO and MNP using gender-mixed rat and human liver microsomes. For the PON1-dominated detoxification of FNO to MNP, in vitro incubations were conducted with gender-mixed liver microsomes or plasma from rats and humans. Sample extraction with diisopropyl ether was performed before UPLC-PDA analysis. More details on in vitro incubations, sample extraction, UPLC-PDA analysis, and calculation of kinetic parameters are provided in the Supporting Information.
Supplementary materials and methods
Chemical and biological materials […]
Human liver microsomes (pooled from 150 donors, mixed gender) and pooled male rat liver microsomes (Sprague-Dawley) were purchased from Corning (Amsterdam, The Netherlands). […] Human plasma (pooled from 25 donors, mixed gender) and rat plasma (Sprague-Dawley, mixed gender) were ordered from BioIVT (West Sussex, UK), and corresponding total protein concentrations were determined using BCA protein assay (Supporting Information). […]

[4] = rats, oral exposure; cited from earlier work

COP(=S)(OC)Oc1ccc([N+](=O)[O-])c(C)c1 [FNT, O,O-dimethyl O-4-nitro-m-tolyl phosphorothioate]
LogP, reported data ([1]; not clear if experimental or in silico, ref WHO 2004): 3.16 | LogP, experimental data ([1]; ref JMPR 2003): 3.319 | predicted POD for humans, fold lower than that of rats ([2]; BMDL10 rat vs human): 5 fold | predicted BMDL10 (POD) ([2]; human, erythrocyte AChE inhibition, acute oral FNT exposure, 10% BMR, lower 95% confidence limit): 0.26 mg/kg BW | BMDU10 ([2]; human, erythrocyte AChE inhibition, acute oral FNT exposure, upper confidence limit): 0.66 mg/kg BW | Km ([3]; read-out: Km, FNT to FNO (CYP450s-catalyzed)): 8.28 µM | Km ([3]; read-out: Km, FNT to MNP (CYP450s-catalyzed)): 20.5 µM | fraction of the dose absorbed (Fa) [4]: 0.9
